Experimental data reported in patent US10745365B2, “Luminogenic and fluorogenic compounds and methods to detect molecules or conditions” (Promega Corporation, priority 2005, dated 2020).

Columns and labels:
Format in all cases: biochemical
[1] = tested on: panel of recombinant human P450s; assay: Two-step luminescent screen of luciferin derivatives against a panel of recombinant human P450s and HLM; conditions: 50 μM substrate, panel of FIGS. 17-18
Procedure: P450s are Supersomes™ purchased from Discovery Labware (BD/Gentest). […] HLM is human liver microsomes.
1× substrate concentration: 50 μM.
The HLM reactions contained […] reaction, except where indicated otherwise. Control insect cell membranes were at 50 μg/50 μL.
For FIG. 20, the panel of human P450s was screened as described above.

[2] = tested on: thermostable luciferase (Luc 146-1H2); assay: Residual active thermostable luciferase after reaction with derivative (Steady Glo); conditions: substrate 100; +DTT; sample taken 60 min
Procedure: After assembly, the reactions were initiated by addition of 25 μl of the thermostable luciferase stock solution above and mixing the tube contents. A 50 μl sample was immediately removed and placed in a luminometer tube and the light read and the tube then replaced in a tube rack at room temperature. While the light reading was being taken, a 5 μl sample of the remaining reaction (which was kept at room temperature) was diluted into 495 μl of 50 mM BisTris, pH 6.5, 1 mg/ml BSA, 1 mM EDTA prechilled to 4° C. and the tube mixed and placed on ice. The light produced by the samples in the luminometer tubes were re-read at 20, 40, 60, 90 and 120 minutes post enzyme addition. Additional 5 μl samples were taken and diluted as above at 60 and 120 minutes post enzyme addition. Once all these readings and samples were taken, 50 μl of the diluted samples was mixed with 50 μl of Steady Glo in luminometer tubes, the tubes incubated 10 minutes […] then the light produced was read on a Turner TD 20/20 luminometer.

[3] = target: T1, QuantiLum Luciferase (firefly luciferase) (Photinus pyralis, UniProt P08659); assay: Light emission of QuantiLum firefly luciferase with luciferin derivatives; conditions: for Light reading at time 0 min / Light reading (Turner 20/20) at time 0: 0 min; for Light reading at time 7 min / Light reading (Turner 20/20) at time 7: 7 min; for Light reading at time 15 min / Light reading (Turner 20/20) at time 15: 15 min; for Light reading at time 22 min / Light reading (Turner 20/20) at time 22: 22 min; for Light reading at time 30 min / Light reading (Turner 20/20) at time 30: 30 min; for Light reading at time 45 min / Light reading (Turner 20/20) at time 45: 45 min; for Light reading at time 60 min / Light reading (Turner 20/20) at time 60: 60 min
T1 construct: purchased Promega Corporation El 70
Procedure: Gel and HPLC stop solution. Solid EDTA (free acid) was placed in a beaker with water and the pH of the solution adjusted to pH 7.0. The solution was then adjusted in volume to produce a solution 400 mM in EDTA.
Enzyme stop solution. A solution was prepared containing 20 mM Bis Tris, pH 6.5, 2 mM EDTA and 1 mg/ml bovine serum albumin.
Reaction buffer (2×). A solution was made containing 100 mM HEPES buffer, pH 8.0; 10 mM MgCl2.
DTT stock. Solid DTT (dithiothreitol) was dissolved in water and then adjusted to pH 8.0 with solid sodium hydroxide. The solution was then adjusted in volume to produce a solution 1 M in DTT.
(§1) After producing the solutions in Table 37, the volume of all reactions was adjusted to 990 μl with water. […] While the light reading was being taken, a 10 μl sample of the reaction was diluted to 500 μl with enzyme stop solution (cooled on ice to 4° C.) mixed and placed on ice and a second sample of 90 μl of reaction was added to 10 μl of Gel/HPLC stop and the tube placed at −20° C. A timer was started with the start of the first reaction and the start times of the remaining reactions was noted. At 15, 30, 45 and 60 minutes, each reaction was sampled as above and the light produced in the luminometer tubes was measured. At 7 and 22 minutes, the light produced in the luminometer tubes was read, but the reactions were not sampled.
as §1, with “40,” for “37,”, “−200” for “−20°”
The DTT, Coenzyme A, and QuantiLum stock solutions are the same as those described herein.
This solution was diluted 1:1 with water to produce an enzyme solution labeled “No addition.” This solution was diluted 1:1 with 400 mM DTT, pH 8.0 to produce a solution labeled+DTT. This solution was diluted 1: 1 with 4 mM Coenzyme A to produce a solution labeled+Co A. Finally, this solution was diluted 1: 1 with a solution having both 4 mM Coenzyme A and 400 mM DTT to produce a solution labeled+Co A & DTT.
50 μl samples of these solutions were placed in the wells of luminometer microtiter plates, row A to row G, respectively. Row H of the plates was given 50 μl of water.
Reactions in these plates were initiated by addition of 50 μl of solution containing QuantiLum luciferase using a 12 channel micropipette. The solutions added to the rows were: columns 1, 5, and 9—no addition solution; columns 2, 6, and 10—+Co A solution; columns 3, 7, and 11—+DTT solution, and; columns 4, 8, and 12—+Co A and DTT solution. After addition of the enzyme solution to the first row on every plate, a timer was started. After addition of the enzyme solution to the last row on each plate, the plate was sealed and read on a Veritas luminometer.

[4] = target: T1, QuantiLum Luciferase (firefly luciferase); assay: Residual active QuantiLum luciferase after reaction with derivative (Steady Glo)
Procedure: as §1
After all samples were taken, 50 μl of the sample diluted into enzyme stop solution was mixed with 50 μl of Steady Glo Luciferase Reagent (Promega) and the light produced measured after incubating at room temperature for 10 minutes. This measured the active luciferase in the initial reaction.
as §1, with “40,” for “37,”, “−200” for “−20°”

T1 sequence (P08659 whole entry): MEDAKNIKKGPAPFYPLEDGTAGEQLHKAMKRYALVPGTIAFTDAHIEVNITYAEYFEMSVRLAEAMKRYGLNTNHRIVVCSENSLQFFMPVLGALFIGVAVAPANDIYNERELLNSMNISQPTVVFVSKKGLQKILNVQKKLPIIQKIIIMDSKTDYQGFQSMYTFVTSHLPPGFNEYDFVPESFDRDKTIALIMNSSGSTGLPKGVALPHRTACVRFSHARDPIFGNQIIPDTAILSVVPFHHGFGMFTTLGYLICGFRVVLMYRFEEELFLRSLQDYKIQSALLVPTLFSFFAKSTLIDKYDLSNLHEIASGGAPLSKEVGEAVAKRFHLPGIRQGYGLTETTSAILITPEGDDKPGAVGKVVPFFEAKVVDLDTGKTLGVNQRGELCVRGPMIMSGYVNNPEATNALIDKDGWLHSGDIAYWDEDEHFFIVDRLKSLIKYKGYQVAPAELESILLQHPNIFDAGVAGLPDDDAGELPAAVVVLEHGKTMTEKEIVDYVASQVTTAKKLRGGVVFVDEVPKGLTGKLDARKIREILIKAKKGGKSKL

SMILES: CC(C)COC(=O)Nc1ccc2nc(C3=NC(C(=O)O)CS3)sc2c1 (centres unmarked) [N-isobutoxycarbonyl aminoluciferin]
- P450 enzyme activity / selectivity (words) [1]: strong selectivity for CYP1A1

SMILES: O=C(O)[C@H]1CSC(c2nc3ccc(OCc4ccccc4)cc3s2)=N1 [L'in-BE]
- light value of diluted reaction sample in Steady Glo [2]: 962.1

SMILES: COc1ccc2nc(C3=N[C@@H](C(=O)NN)CS3)sc2c1 [luciferin-6-methylether hydrazide]
- P450 enzyme activity / selectivity (words) [1]: good selectivity for CYP 1A2 over the other P450s tested

SMILES: O=C(O)[C@H]1CSC(c2ccc3cc(OCOCc4ccccc4)ccc3n2)=N1 [6′benzyloxymethoxy-quinolylluciferin]
- P450 enzyme activity / selectivity (words) [1]: selective for three members of the CYP3A subfamily, CYP3A4, CYP3A5 and CYP3A7

SMILES: O=C(O)[C@H]1CSC(c2nc3ccc(OCc4ccccc4C(F)(F)F)cc3s2)=N1 [6′(o-trifluoromethylbenzyloxy)-luciferin]
- P450 enzyme activity / selectivity (words) [1]: selective for three members of the CYP3A subfamily, CYP3A4, CYP3A5 and CYP3A7
- P450 enzyme activity / selectivity (words) ([1]; listed as 6—O-trifluoromethylbenzyl luciferin): showed substantial activity with CYP3A4 and did not show substantial cross reactivity with CYP4F12

SMILES: COc1ccc2nc(C3=NC(C(=O)O)CS3)sc2c1 (centres unmarked) [Luc’in ME]
- Light reading at time 0 min ([3]; +Co A): 18.31
- Light reading at time 7 min ([3]; +Co A): 2.276
- Light reading at time 15 min ([3]; +Co A): 1.239
- Light reading at time 22 min ([3]; +Co A): 1.178
- Light reading at time 30 min ([3]; +Co A): 1.145
- Light reading at time 45 min ([3]; +Co A): 0.916
- Light reading at time 60 min ([3]; +Co A): 0.714
- Light reading at time 0 min ([3]; +DTT): 38.69
- Light reading at time 7 min ([3]; +DTT): 6.42
- Light reading at time 15 min ([3]; +DTT): 4.073
- Light reading at time 22 min ([3]; +DTT): 3.31
- Light reading at time 30 min ([3]; +DTT): 2.708
- Light reading at time 45 min ([3]; +DTT): 2.202
- Light reading at time 60 min ([3]; +DTT): 1.996
- Light reading at time 0 min ([3]; +EDTA): 1.067
- Light reading at time 7 min ([3]; +EDTA): 0.117
- Light reading at time 15 min ([3]; +EDTA): 0.058
- Light reading at time 22 min ([3]; +EDTA): 0.042
- Light reading at time 30 min ([3]; +EDTA): 0.024
- Light reading at time 45 min ([3]; +EDTA): 0.046
- Light reading at time 60 min ([3]; +EDTA): 0.012
- Light reading at time 0 min ([3]; No addition): 23.46
- Light reading at time 7 min ([3]; No addition): 3.144
- Light reading at time 15 min ([3]; No addition): 1.767
- Light reading at time 22 min ([3]; No addition): 1.317
- Light reading at time 30 min ([3]; No addition): 1.22
- Light reading at time 45 min ([3]; No addition): 0.982
- Light reading at time 60 min ([3]; No addition): 0.851
- Light reading at time 0 min ([3]; w/o ATP): 0
- Light reading at time 7 min ([3]; w/o ATP): 0.017
- Light reading at time 15 min ([3]; w/o ATP): 0.016
- Light reading at time 22 min ([3]; w/o ATP): 0
- Light reading at time 30 min ([3]; w/o ATP): 0
- Light reading at time 45 min ([3]; w/o ATP): 0.017
- Light reading at time 60 min ([3]; w/o ATP): 0.011
- Light reading from residual active enzyme at time 0 min ([4]; +Co A): 163.3
- Light reading from residual active enzyme at time 15 min ([4]; +Co A): 161.8
- Light reading from residual active enzyme at time 30 min ([4]; +Co A): 147.7
- Light reading from residual active enzyme at time 45 min ([4]; +Co A): 144.7
- Light reading from residual active enzyme at time 60 min ([4]; +Co A): 145.6
- Light reading from residual active enzyme at time 0 min ([4]; +DTT): 170
- Light reading from residual active enzyme at time 15 min ([4]; +DTT): 172.3
- Light reading from residual active enzyme at time 30 min ([4]; +DTT): 164.3
- Light reading from residual active enzyme at time 45 min ([4]; +DTT): 161.6
- Light reading from residual active enzyme at time 60 min ([4]; +DTT): 167.6
- Light reading from residual active enzyme at time 0 min ([4]; +EDTA): 150.5
- Light reading from residual active enzyme at time 15 min ([4]; +EDTA): 150
- Light reading from residual active enzyme at time 30 min ([4]; +EDTA): 152.1
- Light reading from residual active enzyme at time 45 min ([4]; +EDTA): 152.8
- Light reading from residual active enzyme at time 60 min ([4]; +EDTA): 151
- Light reading from residual active enzyme at time 0 min ([4]; No addition): 141.7
- Light reading from residual active enzyme at time 15 min ([4]; No addition): 35.4
- Light reading from residual active enzyme at time 30 min ([4]; No addition): 91.82
- Light reading from residual active enzyme at time 45 min ([4]; No addition): 85.72
- Light reading from residual active enzyme at time 60 min ([4]; No addition): 81.76
- Light reading from residual active enzyme at time 0 min ([4]; w/o ATP): 170
- Light reading from residual active enzyme at time 15 min ([4]; w/o ATP): 168.9
- Light reading from residual active enzyme at time 30 min ([4]; w/o ATP): 175.6
- Light reading from residual active enzyme at time 45 min ([4]; w/o ATP): 181.9
- Light reading from residual active enzyme at time 60 min ([4]; w/o ATP): 173.6

SMILES: O=C(OCc1cccnc1)[C@H]1CSC(c2nc3ccccc3s2)=N1 [carboxyl picolinyl ester of luciferin-H]
- P450 enzyme activity / selectivity (words) [1]: preference for 2C19, 1A1 and 1A2

SMILES: COC(=O)[C@H]1CSC(c2nc3ccccc3s2)=N1 [carboxyl methyl ester of deoxyluciferin]
- P450 enzyme activity / selectivity (words) [1]: substantial activity with CYP2C19 and strong selectivity for this enzyme over the others tested

SMILES: O=C(O)[C@H]1CSC(c2nc3ccc(OCCO)cc3s2)=N1 [2 hydroxyethoxyluciferin derivative, 6′-(2-hydroxyethoxyl) luciferin]
- Light reading (Turner 20/20) at time 0 ([3]; +Co A): 810,864
- Light reading (Turner 20/20) at time 7 ([3]; +Co A): 125,718
- Light reading (Turner 20/20) at time 15 ([3]; +Co A): 61,287
- Light reading (Turner 20/20) at time 22 ([3]; +Co A): 326,424
- Light reading (Turner 20/20) at time 30 ([3]; +Co A): 169,972
- Light reading (Turner 20/20) at time 45 ([3]; +Co A): 78,909
- Light reading (Turner 20/20) at time 60 ([3]; +Co A): 45,156
- Light reading (Turner 20/20) at time 0 ([3]; +DTT): 2,515,513
- Light reading (Turner 20/20) at time 7 ([3]; +DTT): 294,885
- Light reading (Turner 20/20) at time 15 ([3]; +DTT): 146,849
- Light reading (Turner 20/20) at time 22 ([3]; +DTT): 335,031
- Light reading (Turner 20/20) at time 30 ([3]; +DTT): 237,487
- Light reading (Turner 20/20) at time 60 ([3]; +DTT): 67,064
- Light reading (Turner 20/20) at time 0 ([3]; No Additive): 749,597
- Light reading (Turner 20/20) at time 7 ([3]; No Additive): 114,541
- Light reading (Turner 20/20) at time 15 ([3]; No Additive): 63,691
- Light reading (Turner 20/20) at time 22 ([3]; No Additive): 259,945
- Light reading (Turner 20/20) at time 30 ([3]; No Additive): 233,600
- Light reading (Turner 20/20) at time 45 ([3]; No Additive): 51,233
- Light reading (Turner 20/20) at time 60 ([3]; No Additive): 44,782
- Light reading (Turner 20/20) at time 0 ([3]; no ATP): 87
- Light reading (Turner 20/20) at time 7 ([3]; no ATP): 106
- Light reading (Turner 20/20) at time 15 ([3]; no ATP): 387,497
- Light reading (Turner 20/20) at time 22 ([3]; no ATP): 218,745
- Light reading (Turner 20/20) at time 45 ([3]; no ATP): 11,499
- Light reading (Turner 20/20) at time 60 ([3]; no ATP): 20,100
- loss of luciferase activity on transformation of substrate ([4]; no additive (reactions 3A, 4A)): significant and substantial reduction in enzyme activity
